# Counter-ions that a name gives are not always drawn. Like-named read-outs stand apart in the source and are kept apart here. *1 amine or outer side, *2 acyl side, *3 side chain or, on linkers, in order; H or OH if unused. Where a SMILES comes first, the peptide text is derived from it. Bridges are numbered along the chain shown (N, C = ends). Roman numbers before positions name the chains, in order. [ ]: non-standard residue; d: D form. Actinocin(9to1) = Cc1c2oc3c(C)ccc(C(=O)[*:1])c3nc-2c(C(=O)[*:2])c(N)c1=O; NMeV = CN[C@H](C(=O)O)C(C)C; Sar = CNCC(=O)O
# How the values were obtained:
# Test in all cases: In vitro combination study with Compound 1, Cell Titer-Glo (ATP) cell viability, 72 h;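 on Call, anti-proliferative effect of combination with Compound 1, A549: Ten-by-ten dose matrices of the two agents in duplicate, compounds added 16 h post-plating, activity relative to DMSO vehicle wells, call reflects synergy evaluation from luminescence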;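 on Call, anti-proliferative effect of combination with Compound 1, COLO205: Ten-by-ten dose matrices of both agents in duplicate plus single-agent dilutions, luminescent ATP read-out, percent activity per well relative to DMSO vehicle wells, synergy call from these matrices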;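 on Call, anti-proliferative effect of combination with Compound 1, H460: Ten-by-ten dose matrices of both drugs alongside single-agent dilutions, luminescence read 72 hours after compound addition, percent activity per well versus vehicle (DMSO) plate controls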;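 on Call, anti-proliferative effect of combination with Compound 1, HCT116: combination call from 10×10 dose matrices in duplicate, graded by synergy, with percent activity per well relative to DMSO vehicle controls on the same plate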;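 on Call, anti-proliferative effect of combination with Compound 1, SW620: Ten-by-ten dose matrices of both drugs in 384-well plates, luminescent ATP read-out, synergy evaluated against single-agent and DMSO vehicle controls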
# COLO205 cancer cells = assay type: cell-based, human
# H460 cancer cells = assay type: cell-based
# Experimental: (§1) Each combination pair was evaluated in an individual 384-well plate which contained variable doses of both compounds as single agents, as well as two, ten-by-ten matrices (in duplicate) that contained mixtures of the two test compounds. In brief, compounds were added to the cell test plates 16 hours after cell plating and then assessed for viability 72 hours later. Continuous cultures of tumor cells were maintained under standard cell culturing conditions (i.e. in a humidified chamber set at 37° C., containing atmosphere 5% carbon dioxide). […] Seventy-two hours after compound addition, ATP levels were measured to assess cell viability. Plating densities were chosen to ensure optimal linear growth over the 72 hour period.
# (§2) Compound dilution and compound delivery to the assay plates were done on HighRes Robotic System (HighRes Biosolutions, Woburn, Mass., USA) with Echo™ Liquid Handler (Labcyte, Sunnyvale, Calif., USA). […] Next, these were used for compound transfer into cell assay plates. All wells were back-filled to give a constant percentage of DMSO.
# (§3) The final DMSO concentration was held constant in all wells across the plate and was maintained at less than 0.5%. […] Cells treated with vehicle (DMSO) in two rows, or single compound serial dilutions in one plate columns/row served as the untreated control and single compound controls, respectively.
# (§4) Compound activity in A549, COLO205, H460, HCT116, SW48, SW620 cancer cell lines was assessed using Cell Titer-Glo® (Promega [Madison, Wis., USA]). After 72 hours incubation, the plates were treated as per package insert protocol for the Promega Luminescence ATP Detection Systems. Briefly, 25 μL of cell lysis/substrate solution (provided in kit form) was added to each well and the plate was incubated at room temperature for 10 minutes. Luminescence was measured using a PHERAstar multi-label counter (BMG Labtech [Ortenberg, Germany]) or LEADseeker (GE Healthcare Life Sciences [Piscataway, N.J., USA]).
# (§5) Numerical luminescence values were analyzed to generate EC50 curves and evaluate synergy. Raw Data reader files were uploaded along with automation workfiles that defined the plate and well contents. Percent activities were calculated for each well versus plate controls.
# (§6) Each plate representing a single drug combination was analyzed separately. First, the viability measurements were normalized by scaling the data so that the median of the negative controls was 0 and the median of the positive controls was 100.
# (§7) For the combination analysis, a response surface model was used to describe the relationship between the normalized viability and the drug concentrations. The data were fit to the model by minimizing the residual sum of squares. Based on the fitted response surface, plots of constant viability, called isobolograms, were produced.
# (§8) The Combination Index and Nonlinear Blending were used as measures of drug synergy. To calculate Combination Index the 50% isobologram (which is the dose contour that has 50% viability) was used. […] A standard procedure was created to produce a call in order to characterize the viability effects for each combination (synergy, additivity, subadditivity, or antagonism). If the Combination Index existed then these measures were used to make the call.
# A549 cancer cells = assay type: cell-based
# Experimental: as §1, §2, §3, §4, §5, §6, §7, §8
# SW620 cancer cells = assay type: cell-based
# HCT116 cancer cells = assay type: cell-based
# Experimental: as §1, §2, §3, §4, §5, §6, §7, §8
# [1] = Table 5 drug combined with Compound 1, 72 h
# [2] = DNA damaging agent combined with Compound 1, 72 h
Compound,"Call, anti-proliferative effect of combination with Compound 1, COLO205 (COLO205 cancer cells; [1])","Call, anti-proliferative effect of combination with Compound 1, A549 (A549 cancer cells; [1])","Call, anti-proliferative effect of combination with Compound 1, SW620 (SW620 cancer cells; [1])","Call, anti-proliferative effect of combination with Compound 1, HCT116 (HCT116 cancer cells; [1])","Call, anti-proliferative effect of combination with Compound 1, COLO205 (COLO205 cancer cells; [2])","Call, anti-proliferative effect of combination with Compound 1, HCT116 (HCT116 cancer cells; [2])","Call, anti-proliferative effect of combination with Compound 1, H460 (H460 cancer cells; [1])",further results
Cc1cc2c(C(C)C)c(O)c(O)c(C=O)c2c(O)c1-c1c(C)cc2c(C(C)C)c(O)c(O)c(C=O)c2c1O [AT101],–,–,–,–,–,–,–,"Call, anti-proliferative effect of combination with Compound 1, COLO205 (COLO205 cancer cells): Additivity (key: Inconclusive: Any; Additivity: 0.7 to 1.3; Synergy: 0 to 0.7; Subadditivity: 1.3 to 2; Antagonism: >2); Call, anti-proliferative effect of combination with Compound 1, H460 (H460 cancer cells): Additivity (key: Inconclusive: Any; Additivity: 0.7 to 1.3; Synergy: 0 to 0.7; Subadditivity: 1.3 to 2; Antagonism: >2); Call, anti-proliferative effect of combination with Compound 1, A549 (A549 cancer cells): Additivity (key: Inconclusive: Any; Additivity: 0.7 to 1.3; Synergy: 0 to 0.7; Subadditivity: 1.3 to 2; Antagonism: >2); Call, anti-proliferative effect of combination with Compound 1, SW620 (SW620 cancer cells): Additivity (key: Inconclusive: Any; Additivity: 0.7 to 1.3; Synergy: 0 to 0.7; Subadditivity: 1.3 to 2; Antagonism: >2); Call, anti-proliferative effect of combination with Compound 1, HCT116 (HCT116 cancer cells): Additivity (key: Inconclusive: Any; Additivity: 0.7 to 1.3; Synergy: 0 to 0.7; Subadditivity: 1.3 to 2; Antagonism: >2)"
CCNC(=O)c1noc(-c2cc(C(C)C)c(O)cc2O)c1-c1ccc(CN2CCOCC2)cc1 [AUY-922],Additivity (0.7 to 1.3),Additivity (0.7 to 1.3),Additivity (0.7 to 1.3),Additivity (0.7 to 1.3),–,–,–,–
CN1CC[C@H](c2c(O)cc(O)c3c(=O)cc(-c4ccccc4Cl)oc23)[C@H](O)C1 [Alvocidib],Additivity (0.7 to 1.3),Additivity (0.7 to 1.3),Subadditivity (1.3 to 2),Additivity (0.7 to 1.3),–,–,–,–
C[C@@]1(CO)[C@H](O)CC[C@@]2(C)[C@H]1CC[C@H]1C[C@@H]3C[C@@]12CC[C@]3(O)COC(=O)CN.Cl [Aphidicolin glycinate],–,–,–,–,Additivity (0.7 to 1.3),Synergy (0 to 0.7),–,"Call, anti-proliferative effect of combination with Compound 1, H460 (H460 cancer cells; [2]): Additivity (0.7 to 1.3); Call, anti-proliferative effect of combination with Compound 1, A549 (A549 cancer cells): Additivity (key: Inconclusive: Any; Additivity: 0.7 to 1.3; Synergy: 0 to 0.7; Subadditivity: 1.3 to 2; Antagonism: >2); Call, anti-proliferative effect of combination with Compound 1, SW620 (SW620 cancer cells; [2]): Additivity (0.7 to 1.3)"
Nc1cc(C(F)(F)F)c(-c2cc(N3CCOCC3)nc(N3CCOCC3)n2)cn1 [BKM-120],Additivity (0.7 to 1.3),Additivity (0.7 to 1.3),Additivity (0.7 to 1.3),Additivity (0.7 to 1.3),–,–,Additivity (0.7 to 1.3),–
CO/C1=C\C(C)=C\[C@@H](C)[C@@H](O)[C@@H](C)C/C(C)=C/C=C/[C@H](OC)[C@@H]([C@@H](C)[C@@H](O)[C@H](C)[C@@]2(O)C[C@@H](O)[C@H](C)[C@@H](C(C)C)O2)OC1=O [Bafilomycin A],Subadditivity (1.3 to 2),–,Additivity (0.7 to 1.3),Additivity (0.7 to 1.3),–,–,Additivity (0.7 to 1.3),"Call, anti-proliferative effect of combination with Compound 1, A549 (A549 cancer cells): Additivity (key: Inconclusive: Any; Additivity: 0.7 to 1.3; Synergy: 0 to 0.7; Subadditivity: 1.3 to 2; Antagonism: >2)"
C[C@H]1CCC/C=C/[C@@H]2C[C@H](O)C[C@H]2[C@H](O)/C=C/C(=O)O1 [Brefeldin A],–,–,–,–,Subadditivity (1.3 to 2),Additivity (0.7 to 1.3),–,"Call, anti-proliferative effect of combination with Compound 1, H460 (H460 cancer cells; [2]): Additivity (0.7 to 1.3); Call, anti-proliferative effect of combination with Compound 1, A549 (A549 cancer cells; [2]): Additivity (0.7 to 1.3); Call, anti-proliferative effect of combination with Compound 1, SW620 (SW620 cancer cells; [2]): Additivity (0.7 to 1.3)"
CS(=O)(=O)OCCCCOS(C)(=O)=O [Busulfan],–,–,–,–,Synergy (0 to 0.7),–,–,–
C=CCNC1=C2C[C@@H](C)C[C@H](OC)[C@H](O)[C@@H](C)/C=C(\C)[C@H](OC(N)=O)[C@@H](OC)/C=C\C=C(/C)C(=O)NC(=CC1=O)C2=O [Compound 17-AAG],Additivity (0.7 to 1.3),Additivity (0.7 to 1.3),Additivity (0.7 to 1.3),Additivity (0.7 to 1.3),–,–,Additivity (0.7 to 1.3),–
CO[C@H]1/C=C\C=C(/C)C(=O)NC2=CC(=O)C(NCCN(C)C)=C(C[C@@H](C)C[C@H](OC)[C@H](O)[C@@H](C)/C=C(\C)[C@@H]1OC(N)=O)C2=O [Compound 17-DMAG],Additivity (0.7 to 1.3),Subadditivity (1.3 to 2),Additivity (0.7 to 1.3),Additivity (0.7 to 1.3),–,–,Additivity (0.7 to 1.3),–
Nc1ccn([C@@H]2O[C@H](CO)[C@@H](O)[C@@H]2O)c(=O)n1 [Cytarabine],–,–,–,–,Synergy (0 to 0.7),Additivity (0.7 to 1.3),–,"Call, anti-proliferative effect of combination with Compound 1, H460 (H460 cancer cells; [2]): Additivity (0.7 to 1.3); Call, anti-proliferative effect of combination with Compound 1, A549 (A549 cancer cells; [2]): Additivity (0.7 to 1.3); Call, anti-proliferative effect of combination with Compound 1, SW620 (SW620 cancer cells; [2]): Synergy (0 to 0.7)"
CN(C)/N=N/c1[nH]cnc1C(N)=O [Dacarbazine],–,–,–,–,–,Additivity (0.7 to 1.3),–,–
"Cc1c2oc3c(C)ccc(C(=O)N[C@@H]4C(=O)N[C@H](C(C)C)C(=O)N5CCC[C@H]5C(=O)N(C)CC(=O)N(C)[C@@H](C(C)C)C(=O)O[C@@H]4C)c3nc-2c(C(=O)N[C@@H]2C(=O)N[C@H](C(C)C)C(=O)N3CCC[C@H]3C(=O)N(C)CC(=O)N(C)[C@@H](C(C)C)C(=O)O[C@@H]2C)c(N)c1=O [Dactinomycin] (I: T[dV]P[Sar][NMeV] / II: T[dV]P[Sar][NMeV]; ester I:1-I:C, II:1-II:C; linker I:N-II:N via Actinocin(9to1))",–,–,–,–,Additivity (0.7 to 1.3),Additivity (0.7 to 1.3),–,"Call, anti-proliferative effect of combination with Compound 1, H460 (H460 cancer cells; [2]): Additivity (0.7 to 1.3); Call, anti-proliferative effect of combination with Compound 1, A549 (A549 cancer cells): Additivity (key: Inconclusive: Any; Additivity: 0.7 to 1.3; Synergy: 0 to 0.7; Subadditivity: 1.3 to 2; Antagonism: >2); Call, anti-proliferative effect of combination with Compound 1, SW620 (SW620 cancer cells; [2]): Additivity (0.7 to 1.3)"
COc1cccc2c1C(=O)c1c(O)c3c(c(O)c1C2=O)C[C@@](O)(C(=O)CO)C[C@@H]3O[C@H]1C[C@H](N)[C@H](O)[C@H](C)O1 [Doxorubicin hydrochloride],–,–,–,–,Synergy (0 to 0.7),Subadditivity (1.3 to 2),–,"Call, anti-proliferative effect of combination with Compound 1, H460 (H460 cancer cells; [2]): Synergy (0 to 0.7); Call, anti-proliferative effect of combination with Compound 1, A549 (A549 cancer cells; [2]): Synergy (0 to 0.7); Call, anti-proliferative effect of combination with Compound 1, SW620 (SW620 cancer cells; [2]): Additivity (0.7 to 1.3)"
CN1CC[C@H](c2c(O)cc(O)c3c(=O)cc(-c4ccccc4Cl)oc23)[C@H](O)C1 [Flavopiridol],–,–,–,–,–,–,Additivity (0.7 to 1.3),–
CS(=O)(=O)N1CCN(Cc2cc3nc(-c4cccc5[nH]ncc45)nc(N4CCOCC4)c3s2)CC1 [GDC-0941],Additivity (0.7 to 1.3),Additivity (0.7 to 1.3),Additivity (0.7 to 1.3),Synergy (0 to 0.7),–,–,Synergy (0 to 0.7),–
S=c1nc[nH]c2nc[nH]c12 [Mercaptopurine],–,–,–,–,Additivity (0.7 to 1.3),Additivity (0.7 to 1.3),–,"Call, anti-proliferative effect of combination with Compound 1, H460 (H460 cancer cells; [2]): Additivity (0.7 to 1.3); Call, anti-proliferative effect of combination with Compound 1, SW620 (SW620 cancer cells; [2]): Subadditivity (1.3 to 2)"
Nc1nc(OCc2ccccc2)c2nc[nH]c2n1 [O6-Benzylguanine],–,–,–,–,Additivity (0.7 to 1.3),–,–,–
CO[C@@H]1[C@H](N(C)C(=O)c2ccccc2)C[C@H]2O[C@]1(C)n1c3ccccc3c3c4c(c5c6ccccc6n2c5c31)C(=O)NC4 [PKC412],Subadditivity (1.3 to 2),–,Additivity (0.7 to 1.3),_Additivity,–,–,Antagonism (>2),–
CCCS(=O)(=O)Nc1ccc(F)c(C(=O)c2c[nH]c3ncc(-c4ccc(Cl)cc4)cc23)c1F [PLX4032],Additivity (0.7 to 1.3),Additivity (0.7 to 1.3),–,Additivity (0.7 to 1.3),–,–,Additivity (0.7 to 1.3),–
Cc1[nH]c2ccccc2c1CCNCc1ccc(/C=C/C(=O)NO)cc1 [Panobinostat],Subadditivity (1.3 to 2),Additivity (0.7 to 1.3),Additivity (0.7 to 1.3),Additivity (0.7 to 1.3),–,–,Additivity (0.7 to 1.3),–
Tunicamycin,Additivity (0.7 to 1.3),–,Additivity (0.7 to 1.3),Synergy (0 to 0.7),–,–,Additivity (0.7 to 1.3),–
